# Patent EP1200114B1, “PPAR DELTA INHIBITORS FOR THE TREATMENT OF CARDIOVASCULAR DISEASES” (priority 1999, dated 2001)
# Entries after “also recorded” stand apart in the source; their conditions may differ.
# How the values were obtained:
# [1] = system: THP-1 cells; experiment: THP-1 foam cell model (PMA-activated cells, Oil Red O lipid staining); format: cell-based, human; settings: for lipid accumulation: PMA-treated THP-1 cells, Oil Red O staining; for foam cell formation: adherent PMA-treated THP-1 cells
# Source text: Treatment was continued for 3 days and the cells fixed in 0.66M paraformaldehyde, stained with a saturating solution of Oil Red O and then counterstained with haematoxylin.
# [2] = system: ApoE; experiment: ApoE mRNA by TAQMAN in THP-1 cells; format: cell-based, human; settings: parental THP-1 cells treated with PMA and linoleic acid
# Protocol: Total RNA was prepared from parental THP-1 cells treated with PMA (THP-1), or PMA and linoleic acid (THP-1+FA), and untreated PPARδ over-expressing cell line (DELTA). cDNA was prepared from these RNA samples and the cDNA was analysed for ApoE sequences using TAQMAN procedures. The result shown is relative expression normalised for β-actin expression and the error bars represent the standard deviation in duplicate samples.
# [3] = system: parental THP-1 cells; experiment: PMA-induced differentiation (adherence to culture dish) of parental THP-1 cells; format: cell-based, human; settings: incubated with PMA and inhibitor
# Protocol: (§1) Cells were treated overnight with 5ng/ml PMA and scored for differentiation (adherence to culture dish) and viability (trypan blue exclusion).
# (§2) Parental and PPARδ anti-sense cells were incubated with PMA and an inhibitor of PKC activity (Bis) and two inhibitors of PLA2 activity (OBAA and mepacrine). These inhibitors were included at concentrations used in previous studies for specific inhibition.
# [4] = system: PPARδ anti-sense cell line; experiment: Viability (trypan blue exclusion) of PPARδ anti-sense cells treated with PMA; format: cell-based, human; settings: incubated with PMA and inhibitor
# Protocol: as §1, §2
# [5] = system: parental THP-1 cells
# Protocol: as §1, §2
# [6] = system: LNCaP; experiment: Prostate cell growth, colorimetric cell number assay; format: cell-based; settings: low concentrations, 7 days
# Protocol: (§3) Cell lines were plated at 2,500 cells per well in a 24-well plate and cultured in RPMI containing 5% dextran-coated charcoal-treated FCS. Increasing concentrations of Compound F or LG 100268 were included in the culture medium and the cultures were maintained for 7 days with changes of drugs and medium every 48 hours.
# [7] = system: PNT1A; experiment: as above; format: cell-based; settings: low concentrations, 7 days
# Protocol: as §3
SMILES,lipid accumulation [1],foam cell formation [1],differentiation of parental THP-1 cells [3],"PMA-induced ""death"" of the PPARδ anti-sense cell line [4]",further results
CCCCC/C=C\C/C=C\CCCCCCCC(=O)O [linoleic acid],Increased lipid accumulation; also recorded: leads to the accumulation of lipid droplets in the cytoplasm,,,,apoE mRNA levels [2]: reduced
"Cc1cccc(Nc2cc(Cl)nc(SCC(=O)O)n2)c1C [Wy 14,643]",,no effect,,,
"CCCCCCCCCCCCCCCCCCc1ccc(C(=O)C=CC(=O)O)cc1 [OBAA, 3-(4-octadecyl)benzoylacrylic acid]",,,prevented,did not block,
"CCN(CC)CCCC(C)Nc1c2ccc(Cl)cc2nc2ccc(OC)cc12 (centres unmarked) [Mepacrine, 6-chloro-9-[(4-diethylamino)-1-methylbutyl]amino-2-methoxy-acridine]",,,prevented,did not block,toxicity in the parental cells [5]: sign of toxicity
"CN(C)CCCn1cc(C2=C(c3c[nH]c4ccccc34)C(=O)NC2=O)c2ccccc21 [Bis, bisindoylmaleamide I]",,,prevented,did not block,
Cc1cc2c(cc1C1(c3ccc(C(=O)O)cn3)CC1)C(C)(C)CCC2(C)C [LG 100268],Increased lipid accumulation,promoted foam cell formation in co-operation with fatty acids,,,growth stimulated [6]: also seen; growth stimulated [7]: also seen
